The mortality is the percentage killed.

We go through 32 molecules from US9212164B2, “Pesticidal compositions and processes related thereto” (Dow AgroSciences LLC, priority 2012, dated 2015).

Test [1] deals with Cabbage Looper (CL) (Trichoplusia ni). As to the kind of experiment: Bioassays on CL, 128-well diet tray assay. It is filed as in vivo. The conditions noted are these: 168 h, 50 μg/cm^2 on artificial diet, second instar larvae, five to seven days, 25° C., read-out: CL Rating (percent mortality). The protocol: (§1) Certain molecules disclosed in this document were tested against BAW, CEW and CL using procedures described in the following examples. In the reporting of the results, the “BAW & CEW & CL Rating Table” was used (See Table Section).
Bioassays on CL (Trichoplusia ni)
Bioassays on CL were conducted using a 128-well diet tray assay. One to five second instar CL larvae were placed in each well (3 mL) of the diet tray that had been previously filled with 1 mL of artificial diet to which 50 μg/cm^2 of the test compound (dissolved in 50 μL of 90:10 acetone-water mixture) had been applied (to each of eight wells) and then allowed to dry. Trays were covered with a clear self-adhesive cover, and held at 25° C., 14:10 light-dark for five to seven days. Percent mortality was recorded for the larvae in each well; activity in the eight wells was then averaged. The results are indicated in the table entitled “Table 4: Assay Results Part 2” (See Table Section).

In test [2] the test system is Beet Armyworm (BAW) (Spodoptera exigua). As to the kind of experiment: Bioassays on BAW, 128-well diet tray assay. The conditions noted are these: for mortality at 50 µg/cm2: Spodoptera exigua, 168 h, 50 μg/cm^2 on artificial diet, second instar larvae, five to seven days, 25° C., read-out: BAW Rating (percent mortality); for BAW Rating: Beet Armyworm, 128-well diet tray assay, rating C = Not Tested (omitted), D = no activity noticed. It is filed as in vivo. The protocol:
as §1
Bioassays on BAW (Spodoptera exigua)
Bioassays on BAW were conducted using a 128-well diet tray assay. One to five second instar BAW larvae were placed in each well (3 mL) of the diet tray that had been previously filled with 1 mL of artificial diet to which 50 μg/cm^2 of the test compound (dissolved in 50 μL of 90:10 acetone-water mixture) had been applied (to each of eight wells) and then allowed to dry. Trays were covered with a clear self-adhesive cover, and held at 25° C., 14:10 light-dark for five to seven days. Percent mortality was recorded for the larvae in each well; activity in the eight wells was then averaged. The results are indicated in the tables entitled “Table 3: Assay Results Part 1” and “Table 4: Assay Results Part 2” (See Table Section).

Consider `Cc1cc(C(/C=C/c2ccc(C(=O)NC3(C(=O)NCC(F)(F)F)CC3)c(C(F)(F)F)c2)C(F)(F)F)ccc1Cl` (centres unmarked) [Compound P245], for which the mortality at 50 µg/cm2 in test [1] and in test [2] was 50 to 100% throughout. As to `O=C(NC1(C(=O)NCC(F)(F)F)CC1)c1ccc(/C=C/C(c2cc(Cl)cc(Br)c2)C(F)(F)F)cc1C(F)(F)F` (centres unmarked) [Compound P380], the mortality at 50 µg/cm2 in test [1] and in test [2] was 50 to 100% each time. Consider `Cc1cc(C(/C=C/c2ccc(C(=O)NC3(C(=O)NCC(F)(F)F)CC3)c(C(F)(F)F)c2)C(F)(F)F)cc(Cl)c1Cl` (centres unmarked) [FA3], for which the mortality at 50 µg/cm2 in test [1] and in test [2] was 50 to 100% in each case. Turning to `O=C(NC1(C(=S)NCC(F)(F)F)CC1)c1ccc(/C=C/C(c2cc(Cl)c(Cl)c(Cl)c2)C(F)(F)F)cc1Cl` (centres unmarked) [Compound P1010], the mortality at 50 µg/cm2 in test [1] and in test [2] was 50 to 100% in each case. Consider `O=C(NC1(C(=O)NCC(F)(F)F)CC1)c1ccc(/C=C/C(c2cc(Br)cc(Br)c2)C(F)(F)F)cc1C(F)(F)F` (centres unmarked) [Compound P1198], for which the mortality at 50 µg/cm2 in test [1] and in test [2] was 50 to 100% each time. For `O=C(NC1(C(=O)NCc2cccc(C(F)(F)F)c2)CC1)c1ccc(/C=C/C(c2cc(Cl)c(Cl)c(Cl)c2)C(F)(F)F)cc1Br` (centres unmarked) [FA26], the mortality at 50 µg/cm2 in test [1] and in test [2] was 50 to 100% throughout. `O=C(NC1(C(=O)NCc2cccc(Cl)c2)CC1)c1ccc(/C=C/C(c2cc(Cl)c(Cl)c(Cl)c2)C(F)(F)F)cc1Br` (centres unmarked) [FA27]: the mortality at 50 µg/cm2 in test [1] and in test [2] was 50 to 100% throughout. As to `O=C(NCCc1ccc(Cl)nc1)c1ccc(/C=C/C(c2cc(Cl)c(Cl)c(Cl)c2)C(F)(F)F)cc1Br` (centres unmarked) [AC113], the “BAW Rating” value in test [2] is recorded as “B (More than 0 - Less than 50)”.

With `O=C(NC1(C(=O)NC2CCOC2)CC1)c1ccc(/C=C/C(c2cc(Cl)c(Cl)c(Cl)c2)C(F)(F)F)cc1Br` (centres unmarked) [FA25], the mortality at 50 µg/cm2 in test [1] and in test [2] was 50 to 100% throughout.

Regarding `O=C(NC1(C(=O)NCc2ccc(C(F)(F)F)cc2)CC1)c1ccc(/C=C/C(c2cc(Cl)c(Cl)c(Cl)c2)C(F)(F)F)cc1Br` (centres unmarked) [FA34], the mortality at 50 µg/cm2 in test [1] and in test [2] was 50 to 100% each time. On to `O=C(NC1(C(=O)NC2CCCC2)CC1)c1ccc(/C=C/C(c2cc(Cl)c(Cl)c(Cl)c2)C(F)(F)F)cc1Br` (centres unmarked) [FA17], for which the mortality at 50 µg/cm2 in test [1] and in test [2] was 50 to 100% each time. As for `O=C(NC1(C(=O)NCC(F)(F)F)CCC1)c1ccc(/C=C/C(c2cc(Cl)c(Cl)c(Cl)c2)C(F)(F)F)cc1Cl` (centres unmarked) [Compound F4], the mortality at 50 µg/cm2 in test [1] and in test [2] was 50 to 100% throughout. Turning to `O=C(NC1CCN(C2COC2)CC1)c1ccc(/C=C/C(c2cc(Cl)c(Cl)c(Cl)c2)C(F)(F)F)cc1Br` (centres unmarked) [AC108, (E)-2-Bromo-N-(1-(oxetan-3-yl)piperidin-4-yl)-4-(4,4,4-trifluoro-3-(3,4,5-trichlorophenyl)but-1-en-1-yl)benzamide], the “BAW Rating” value in test [2] is “B (More than 0 - Less than 50)”. `CN(Cc1ccc(Br)cc1)C(=O)C1(NC(=O)c2ccc(/C=C/C(c3cc(Cl)c(Cl)c(Cl)c3)C(F)(F)F)cc2Br)CC1` (centres unmarked) [FA44]: the mortality at 50 µg/cm2 in test [1] and in test [2] was 50 to 100% in each case.

On to `COCCN(C)C(=O)C1(NC(=O)c2ccc(/C=C/C(c3cc(Cl)c(Cl)c(Cl)c3)C(F)(F)F)cc2Br)CC1` (centres unmarked) [FA43], for which the mortality at 50 µg/cm2 in test [1] and in test [2] was 50 to 100% each time. Regarding `O=C(NC1(C(=O)NCC(F)(F)F)CC1)c1ccc(/C=C/C(c2cc(Br)c(Cl)c(Br)c2)C(F)(F)F)cc1Br` (centres unmarked) [FA6], the mortality at 50 µg/cm2 in test [1] and in test [2] was 50 to 100% each time. For the molecule `COc1cccc(CNC(=O)C2(NC(=O)c3ccc(/C=C/C(c4cc(Cl)c(Cl)c(Cl)c4)C(F)(F)F)cc3Br)CC2)c1` (centres unmarked) [FA35], the mortality at 50 µg/cm2 in test [1] and in test [2] was 50 to 100% throughout. With `O=C(NC1(C(=O)NCCC(F)(F)F)CC1)c1ccc(/C=C/C(c2cc(Cl)c(Cl)c(Cl)c2)C(F)(F)F)cc1Br` (centres unmarked) [Compound P1033], the mortality at 50 µg/cm2 in test [1] and in test [2] was 50 to 100% each time. Turning to `O=C(NC1(C(=S)NCC(F)(F)F)CC1)c1ccc(/C=C/C(c2cc(Cl)c(Cl)c(Cl)c2)C(F)(F)F)cc1Br` (centres unmarked) [Compound P1009], the mortality at 50 µg/cm2 in test [1] and in test [2] was 50 to 100% each time. For `COc1ccc(NC(=O)C2(NC(=O)c3ccc(/C=C/C(c4cc(Cl)c(Cl)c(Cl)c4)C(F)(F)F)cc3Br)CC2)cc1` (centres unmarked) [FA40], the mortality at 50 µg/cm2 in test [1] and in test [2] was 50 to 100% in each case. For the molecule `CCN(Cc1ccccc1)C(=O)C1(NC(=O)c2ccc(/C=C/C(c3cc(Cl)c(Cl)c(Cl)c3)C(F)(F)F)cc2Br)CC1` (centres unmarked) [FA45], the mortality at 50 µg/cm2 in test [1] and in test [2] was 50 to 100% each time.

`O=C(NC1(C(=O)NCc2ccc(Cl)cc2)CC1)c1ccc(/C=C/C(c2cc(Cl)c(Cl)c(Cl)c2)C(F)(F)F)cc1Br` (centres unmarked) [FA16]: the mortality at 50 µg/cm2 in test [1] and in test [2] was 50 to 100% each time. Consider `O=C(NC1(C(=O)NCC(F)(F)F)CC1)c1ccc(/C=C/C(c2cc(Cl)cc(Br)c2)C(F)(F)F)cc1Br` (centres unmarked) [Compound P378], for which the mortality at 50 µg/cm2 in test [1] and in test [2] was 50 to 100% throughout. With `CCNC(=O)C1(NC(=O)c2ccc(/C=C/C(c3cc(Cl)c(Cl)c(Cl)c3)C(F)(F)F)cc2Br)CC1` (centres unmarked) [Compound P1023], the mortality at 50 µg/cm2 in test [1] and in test [2] was 50 to 100% each time.

`Cc1cc(C(/C=C/c2ccc(C(=O)NC3(C(=O)NCC(F)(F)F)CC3)c(Br)c2)C(F)(F)F)cc(C)c1F` (centres unmarked) [Compound P333]: the mortality at 50 µg/cm2 in test [1] and in test [2] was 50 to 100% throughout. With `O=C(NC1(C(=O)NCC(F)(F)F)CC1)c1ccc(/C=C/[C@H](c2cc(Cl)c(Cl)c(Cl)c2)C(F)(F)F)cc1C(F)(F)F` (single isomer, unassigned) [Compound F8A], the mortality at 50 µg/cm2 in test [1] and in test [2] was 50 to 100% each time. Take `O=C(NC1(C(=O)NCc2ccccc2Cl)CC1)c1ccc(/C=C/C(c2cc(Cl)c(Cl)c(Cl)c2)C(F)(F)F)cc1Br` (centres unmarked) [FA29]: the mortality at 50 µg/cm2 in test [1] and in test [2] was 50 to 100% each time. As for `N#CCN1CCC(NC(=O)c2ccc(/C=C/C(c3cc(Cl)c(Cl)c(Cl)c3)C(F)(F)F)cc2Br)CC1` (centres unmarked) [AC107], the “BAW Rating” value in test [2] was “B (More than 0 - Less than 50)”.

Turning to `O=C(NC1(C(=O)NC2CCCOC2)CC1)c1ccc(/C=C/C(c2cc(Cl)c(Cl)c(Cl)c2)C(F)(F)F)cc1Br` (centres unmarked) [FA47], the mortality at 50 µg/cm2 in test [1] and in test [2] was 50 to 100% each time. As for `O=C(NC1(C(=O)NCC(F)(F)F)CC1)c1ccc(/C=C/C(c2cc(F)cc(Br)c2)C(F)(F)F)cc1C(F)(F)F` (centres unmarked) [Compound P200], the mortality at 50 µg/cm2 in test [1] and in test [2] was 50 to 100% in each case. As for `CCNC(=O)NCc1ccc(/C=C/C(c2cc(Cl)cc(Cl)c2)C(F)(F)F)cc1Cl` (centres unmarked) [CC31, (E)-1-(2-Chloro-4-(3-(3,5-dichlorophenyl)-4,4,4-trifluorobut-1-en-1-yl)benzyl)-3-ethylurea], the “BAW Rating” value in test [2] is “B (More than 0 - Less than 50)”. In the case of `FC(F)(F)C(/C=C/c1ccc(-n2cncn2)cc1)c1ccccc1` (centres unmarked) [DC3], the “BAW Rating” value in test [2] was “B (More than 0 - Less than 50)”.
